The text below walks through data of publication PMC6264310, “Synthesis and Pharmacological Activity of Diterpenylnaphthoquinone Derivatives” (Molecules, 2011).

A word on the IC50: it is the concentration that inhibits the measured activity by half.

The subject of data set [1] is HCl-EtOH-induced gastric lesions. Put plainly: HCl-EtOH-induced gastric lesion model in mice. Format: in vivo. Conditions: mice, single oral dose of 5 mg/kg; for responders at 5 mg/kg / inhibition in vivo at 5 mg/kg: Mus musculus, 1 h; for responders at 5 mg/kg: read-out: Protected stomachs (number of stomachs completely protected from any visible bleeding) (converted); for inhibition in vivo at 5 mg/kg: read-out: Protection (%). The protocol:
3.5. HCl-EtOH-Induced Ulcer Model in Mice
The gastroprotective activity of the compounds was assessed in the EtOH-HCl-induced gastric lesion model. Male Swiss albino mice weighing 30 ± 3 g were used. The animals were fed on certified Champion diet with free access to water under standard conditions of 12 h dark-light period, 50% relative humidity, and 22 °C room temperature. The mice were randomly distributed into groups of 7–14 animals each and fasted for 24 h with free access to water before the oral administration of test samples by gavage. The purity of the tested compounds was higher than 95% by NMR analysis. To keep the animal numbers to a minimum, dose-response studies were performed with lapachol at 5, 10 and 50 mg/kg to set the conditions for single-dose comparison of gastroprotective effect. The tested compounds, lansoprazole (20 mg/kg) or the vehicle (12% Tween 80, 10 mL/kg) were administered orally by gavage. After 50 min, all groups were orally treated with 0.2 mL of a solution containing 60% EtOH-0.3 M HCl for gastric lesion induction. Animals were sacrificed by cervical dislocation 1 h after the administration of EtOH-HCl, and the stomachs excised and inflated by injection of 5% formalin (1 mL). The ulcerated stomachs were fixed in 5% formalin for 30 min and opened along the greater curvature. The length (mm) of each lesion was measured, and the lesion index expressed as the sum of the length of all lesions. Based on previous studies on the parent diterpenes, comparison of the new compounds 1–12 was carried out at a single oral dose of 5 mg/kg. The protocols were approved by the Universidad de Talca Institutional Animal Care and Use Committee, which follows the recommendations of the Canadian Council on Animal Care. Tween 80 and lansoprazole (>98% purity by HPLC) were purchased from Sigma-Aldrich.
Results were expressed as the mean ± SEM. In all experiments, statistical differences between several treatments and their respective control were determined by one-way ANOVA with Student-Newman-Keuls post-hoc test. The level of significance was set at P < 0.05.

For a further data set, the system named is MRC-5 fibroblasts. Put plainly: Basal cytotoxicity, neutral red uptake assay, MRC-5. Format: cell-based. The note with it: Homo sapiens, MRC5, MRC-5, confluent cultures, 24 h, read-out: IC50 ± SEM, Fibroblasts. The protocol:
(§1) 3.6. Cytotoxicity Assay
(§2) The human cell lines MRC-5 normal lung fibroblasts (ATCC CCL-171), AGS gastric adenocarcinoma cells (ATCC CRL-1739), and Hep G2 hepatocellular carcinoma cells (ATCC HB-8065) were obtained from the American Type Culture Collection (ATCC, Manassas, VA, USA). The cells were grown as monolayers in the following media: MRC-5 and Hep G2 in minimum essential Eagle’s medium (MEM), with Earle’s salts, 2.0 mM L-glutamine (Sigma Chemical Co.) and 2.2 g/L sodium bicarbonate (Sigma Chemical Co.), supplemented with 10% heat-inactivated fetal bovine serum (FBS), 100 IU/mL penicillin, and 100 µg/mL streptomycin in a humidified incubator with 5% CO2 in air at 37 °C. Cell passage was maintained between 10 and 16 for MRC-5 and between 79 and 82 for Hep G2 cells. The medium was changed every 2 days. Culture media, antibiotics, and FBS were obtained from Invitrogen Corp. Human gastric adenocarcinoma cells AGS (ATCC CRL-1739) were grown as monolayers in Ham F-12 medium containing 1.0 mM L-glutamine and 1.5 g/L sodium bicarbonate, supplemented with 10% heat-inactivated FBS, 100 IU/mL penicillin, and 100 µg/mL streptomycin in a humidified incubator with 5% CO2 in air at 37 °C. Cell passage was maintained between 42 and 48. The medium was changed every 2 days.
(§3) Confluent cultures of the different cell lines were treated with medium containing the compounds at concentrations ranging from 1 up to 1,000 µM. The antisecretory drug lansoprazole was used as reference compound. The substances were first dissolved in DMSO and then in the corresponding culture medium supplemented with 2% FBS. The final concentration of DMSO in the test medium and controls was 1%. The cells were exposed for 24 h to test medium with or without the compound (control). Each concentration was tested in quadruplicate together with the control and repeated three times in separate experiments. At the end of the incubation the neutral red uptake assay was performed.

The test system of a further data set is AGS cells. Put plainly: Basal cytotoxicity, neutral red uptake assay, AGS. Type of data set: cell-based. Conditions: Homo sapiens, confluent cultures, 24 h, read-out: IC50 ± SEM, AGS. The protocol: as §1, §2, §3
The subject of a further data set is Hep G2 cells. Put plainly: Basal cytotoxicity, neutral red uptake assay, Hep G2. Type of data set: cell-based. Conditions: Homo sapiens, HepG2, Hep G2, confluent cultures, 24 h, read-out: IC50 ± SEM, Hep G2. The protocol: as §1, §2, §3
A short description of data set [2]: Basal cytotoxicity, cell lines not separated in the text. Format: cell-based. Conditions: human; stated in text without cell line. The protocol:
as §1
The human cell lines MRC-5 normal lung fibroblasts (ATCC CCL-171), AGS gastric adenocarcinoma cells (ATCC CRL-1739), and Hep G2 hepatocellular carcinoma cells (ATCC HB-8065) were obtained from the American Type Culture Collection (ATCC, Manassas, VA, USA). The cells were grown as monolayers in the following media: MRC-5 and Hep G2 in minimum essential Eagle’s medium (MEM), with Earle’s salts, 2.0 mM L-glutamine (Sigma Chemical Co.) and 2.2 g/L sodium bicarbonate (Sigma Chemical Co.), supplemented with 10% heat-inactivated fetal bovine serum (FBS), 100 IU/mL penicillin, and 100 µg/mL streptomycin in a humidified incubator with 5% CO2 in air at 37 °C. Cell passage was maintained between 10 and 16 for MRC-5 and between 79 and 82 for Hep G2 cells. The medium was changed every 2 days. Culture media, antibiotics, and FBS were obtained from Invitrogen Corp. Human gastric adenocarcinoma cells AGS (ATCC CRL-1739) were grown as monolayers in Ham F-12 medium containing 1.0 mM L-glutamine and 1.5 g/L sodium bicarbonate, supplemented with 10% heat-inactivated FBS, 100 IU/mL penicillin, and 100 µg/mL streptomycin in a humidified incubator with 5% CO2 in air at 37 °C. Cell passage was maintained between 42 and 48. The medium was changed every 2 days. […]

For `C=C1CCC2[C@](C)(CCC[C@]2(C)C(=O)OC)[C@H]1CC[C@@H](C)CC(=O)OC1=C(CCC(C)C)C(=O)C2=C(CCCC2)C1=O` (stereo partly shown) [Compound 6, Dihydroprenyl-5,6,7,8-tetrahydrolapachoyl junicedrate methyl ester], in data set [1], the responders at 5 mg/kg is 37.5%, the inhibition in vivo at 5 mg/kg is 74% and the “Lesion index (mm) Mean ± SEM” value is given as 6.5 ± 2.7 mm. For the same molecule, in the data set on MRC-5 fibroblasts, the IC50 was above 1000 µM. Moreover, in the data set with AGS cells, the IC50 was above 1000 µM. In addition, the IC50 with Hep G2 cells is above 1000 µM. Further, the IC50 at 24 h in data set [2] was above 1000 µM.
For `C=C1CCC2[C@](C)(CCC[C@]2(C)C(=O)O)[C@H]1CC[C@@H](C)CC(=O)OC1=C(CCC(C)C)C(=O)c2ccccc2C1=O` (stereo partly shown) [Compound 3, Dihydroprenyl lapachoyl junicedrate], in data set [1], the responders at 5 mg/kg is 0%. Also, the inhibition in vivo at 5 mg/kg in data set [1] is 59%. Also, in data set [1], the “Lesion index (mm) Mean ± SEM” value worked out at 17.9 ± 4.6 mm. The values for the IC50 in the data set with MRC-5 fibroblasts, with AGS cells and with Hep G2 cells were 156 ± 9 µM, 89 ± 5 µM and above 1000 µM, respectively.
